Laboratory results published in patent publication US8802597B2, “Herbicidal pyrimidines” (E I du Pont de Nemours and Company, priority 2003, dated 2014).

Legend:
Experiment in all cases: Test G pre/postemergence
Assay type in all cases: in vivo
[1] = test system: Italian ryegrass (Lolium multiflorum)
Summary of the method: (§1)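 Test chemicals in non-phytotoxic solvent with surfactant applied preemergence to sown seeds or nutlets and postemergence to plants 2–18 cm tall (1- to 4-leaf stage). Greenhouse-held 12–21 days, then visually rated against untreated controls on a 0 (no effect) to 100 (complete control) scale.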

[2] = test system: goosegrass (Eleusine indica)
Summary of the method: as §1

[3] = test system: common mallow (Malva sylvestris)
Summary of the method: as §1

[4] = test system: downy bromegrass (Bromus tectorum)
Summary of the method: as §1

[5] = test system: tropical spiderwort (Commelina benghalensis)
Summary of the method: as §1

[6] = test system: johnsongrass (Sorghum halepense)
Summary of the method: as §1

[7] = test system: common chickweed (Stellaria media)
Summary of the method: as §1

[8] = test system: common ragweed (Ambrosia elatior)
Summary of the method: as §1

[9] = test system: black mustard (Brassica nigra)
Summary of the method: as §1

[10] = test system: prickly sida (Sida spinosa)
Summary of the method: as §1

[11] = test system: Surinam grass (Brachiaria decumbens)
Summary of the method: as §1

[12] = test system: quackgrass (Elytrigia repens)
Summary of the method: as §1

[13] = test system: guineagrass (Panicum maximum)
Summary of the method: as §1

[14] = test system: bermudagrass (Cynodon dactylon)
Summary of the method: as §1

[15] = Postemergence, 250 g ai/ha, scale 0 to 100
[16] = Postemergence, 500 g ai/ha, scale 0 to 100
[17] = Postemergence, 62 g ai/ha, scale 0 to 100
[18] = Postemergence, 125 g ai/ha, scale 0 to 100
[19] = Postemergence, 375 g ai/ha, scale 0 to 100
[20] = Preemergence, 62 g ai/ha, scale 0-100
[21] = Preemergence, 125 g ai/ha, scale 0-100
[22] = Preemergence, 250 g ai/ha, scale 0-100
[23] = Preemergence, 500 g ai/ha, scale 0-100
[24] = Preemergence, 500 g ai/ha, scale 0 to 100
[25] = Preemergence, 375 g ai/ha, scale 0 to 100

CCOC(=O)c1nc(C2CC2)nc(N)c1Br [Compound 1, ethyl 6-amino-5-bromo-2-cyclopropyl-4-pyrimidinecarboxylate]
70: Plant response rating, Mallow [3, 15] | Plant response rating, Bromegrass, Downy [4, 19] | Plant response rating, Spiderwort [5, 20] | Plant response rating, Johnsongrass [6, 17] | Plant response rating, Johnsongrass [6, 18] | Plant response rating, Chickweed [7, 20] | Plant response rating, Prickly Sida [10, 17] | Plant response rating, Prickly Sida [10, 18] | Plant response rating, Prickly Sida [10, 20] | Plant response rating, Quackgrass [12, 16] | Plant response rating, Quackgrass [12, 19] | Plant response rating, Guineagrass [13, 18] | Plant response rating, Guineagrass [13, 20] | Plant response rating, Guineagrass [13, 21] | Plant response rating, Bermudagrass [14, 24] | Plant response rating, Bermudagrass [14, 25]
100: Plant response rating, Spiderwort [5, 21] | Plant response rating, Spiderwort [5, 22] | Plant response rating, Spiderwort [5, 23] | Plant response rating, Spiderwort [5, 24] | Plant response rating, Chickweed [7, 19] | Plant response rating, Chickweed [7, 24] | Plant response rating, Chickweed [7, 25] | Plant response rating, Ragweed [8, 16] | Plant response rating, Ragweed [8, 19] | Plant response rating, Ragweed [8, 22] | Plant response rating, Ragweed [8, 23] | Plant response rating, Ragweed [8, 24] | Plant response rating, Black Mustard [9, 24] | Plant response rating, Black Mustard [9, 25] | Plant response rating, Prickly Sida [10, 21] | Plant response rating, Prickly Sida [10, 22] | Plant response rating, Prickly Sida [10, 23] | Plant response rating, Prickly Sida [10, 24] | Plant response rating, Surinam Grass [11, 24] | Plant response rating, Guineagrass [13, 24] | Plant response rating, Guineagrass [13, 25]
40: Plant response rating, Ryegrass, Italian [1, 15] | Plant response rating, Ryegrass, Italian [1, 16] | Plant response rating, Ryegrass, Italian [1, 19] | Plant response rating, Johnsongrass [6, 21] | Plant response rating, Bermudagrass [14, 15] | Plant response rating, Bermudagrass [14, 19]
25: Plant response rating, Bermudagrass [14, 17] | Plant response rating, Bermudagrass [14, 18]
10: Plant response rating, Ryegrass, Italian [1, 18] | Plant response rating, Ryegrass, Italian [1, 21] | Plant response rating, Quackgrass [12, 17] | Plant response rating, Quackgrass [12, 20] | Plant response rating, Bermudagrass [14, 20]
30: Plant response rating, Ryegrass, Italian [1, 22] | Plant response rating, Bromegrass, Downy [4, 17] | Plant response rating, Bromegrass, Downy [4, 18] | Plant response rating, Black Mustard [9, 20] | Plant response rating, Surinam Grass [11, 17] | Plant response rating, Quackgrass [12, 18] | Plant response rating, Bermudagrass [14, 22]
95: Plant response rating, Ryegrass, Italian [1, 23] | Plant response rating, Ryegrass, Italian [1, 24] | Plant response rating, Mallow [3, 16] | Plant response rating, Mallow [3, 19] | Plant response rating, Mallow [3, 22] | Plant response rating, Mallow [3, 23] | Plant response rating, Mallow [3, 24] | Plant response rating, Bromegrass, Downy [4, 22] | Plant response rating, Bromegrass, Downy [4, 24] | Plant response rating, Bromegrass, Downy [4, 25] | Plant response rating, Spiderwort [5, 15] | Plant response rating, Spiderwort [5, 16] | Plant response rating, Spiderwort [5, 17] | Plant response rating, Spiderwort [5, 18] | Plant response rating, Spiderwort [5, 19] | Plant response rating, Johnsongrass [6, 15] | Plant response rating, Johnsongrass [6, 16] | Plant response rating, Johnsongrass [6, 19] | Plant response rating, Chickweed [7, 15] | Plant response rating, Chickweed [7, 18] | Plant response rating, Chickweed [7, 21] | Plant response rating, Chickweed [7, 22] | Plant response rating, Ragweed [8, 15] | Plant response rating, Ragweed [8, 18] | Plant response rating, Ragweed [8, 21] | Plant response rating, Prickly Sida [10, 16] | Plant response rating, Prickly Sida [10, 19] | Plant response rating, Surinam Grass [11, 20] | Plant response rating, Surinam Grass [11, 21] | Plant response rating, Surinam Grass [11, 22] | Plant response rating, Surinam Grass [11, 23] | Plant response rating, Quackgrass [12, 23] | Plant response rating, Quackgrass [12, 24] | Plant response rating, Guineagrass [13, 15] | Plant response rating, Guineagrass [13, 16]
90: Plant response rating, Prickly Sida [10, 15] | Plant response rating, Surinam Grass [11, 16] | Plant response rating, Surinam Grass [11, 19] | Plant response rating, Quackgrass [12, 22]
60: Plant response rating, Goosegrass [2, 15] | Plant response rating, Goosegrass [2, 16] | Plant response rating, Goosegrass [2, 18] | Plant response rating, Goosegrass [2, 19] | Plant response rating, Mallow [3, 18] | Plant response rating, Bromegrass, Downy [4, 15] | Plant response rating, Johnsongrass [6, 22] | Plant response rating, Black Mustard [9, 17] | Plant response rating, Surinam Grass [11, 18] | Plant response rating, Quackgrass [12, 15] | Plant response rating, Quackgrass [12, 21] | Plant response rating, Guineagrass [13, 17]
20: Plant response rating, Goosegrass [2, 17] | Plant response rating, Bromegrass, Downy [4, 21] | Plant response rating, Johnsongrass [6, 20] | Plant response rating, Bermudagrass [14, 21]
80: Plant response rating, Mallow [3, 21] | Plant response rating, Bromegrass, Downy [4, 16] | Plant response rating, Black Mustard [9, 21]
50: Plant response rating, Goosegrass [2, 22] | Plant response rating, Goosegrass [2, 24] | Plant response rating, Goosegrass [2, 25] | Plant response rating, Mallow [3, 17] | Plant response rating, Mallow [3, 20] | Plant response rating, Ragweed [8, 20] | Plant response rating, Bermudagrass [14, 16]
0: Plant response rating, Ryegrass, Italian [1, 17] | Plant response rating, Ryegrass, Italian [1, 20] | Plant response rating, Goosegrass [2, 20] | Plant response rating, Bromegrass, Downy [4, 20]
75: Plant response rating, Johnsongrass [6, 23] | Plant response rating, Johnsongrass [6, 24] | Plant response rating, Ragweed [8, 17] | Plant response rating, Black Mustard [9, 15] | Plant response rating, Black Mustard [9, 16] | Plant response rating, Black Mustard [9, 18] | Plant response rating, Black Mustard [9, 19]
85: Plant response rating, Black Mustard [9, 22] | Plant response rating, Surinam Grass [11, 15] | Plant response rating, Guineagrass [13, 22]
